Entries after “also recorded” stand apart in the source; their conditions may differ.
Assays:
[1] = system: renin expression in CNT cells; assay: Renin expression in CNT cells by quantitative histology (renin immunostaining) after sodium diet and diuretics; assay type: in vivo, C57BL6 mice
Description: (§1) 3. Animal experiments and measurements. C57BL6 mice were used following IRB approved protocols. Twenty-four hours prior to dietary sodium manipulations, all animals were fasted with free access to water, supplemented with 2% glucose and 0.1% KCl. Either one mg/kg amiloride and 2 mg/kg furosemide (52) or control carrier were applied by subcutaneous injection. Low sodium (0.3% sodium) and high sodium (6%) diets were purchased from Purina Mills (Purina Mills Inc., St. Louis, Mo.). Blood was collected by cardiac puncture. Spot urine was collected by bladder puncture. Hemidissected kidneys were formalin-fixed or snap-frozen in liquid nitrogen. For urine collection, mice were placed in metabolic cages (Nalgene, Nalge Nunc International, Rochester, N.Y.). Urine specimens were collected at 12 h intervals in tubes containing AEBSF and 8-hydroxyquinoline (NEN-DuPont, Boston, Mass.). Weight and urine volumes were recorded daily. Urinary Ang and A-I measurements were corrected for creatinine or expressed as total urinary Ang. RNA isolation and RT-PCR were performed following standard protocols (QIAGEN, Valencia, Calif.). […]
5. […] The biotinylated secondary antibody was detected using streptavidin conjugated with horseradish peroxidase or alkaline phosphatase and visualized with either 3-amino-9-ethyl-carbazole (AEC; Sigma) or NBT/BCIP, respectively. […]
6. Quantitative histology. Renin expression in renal tubular cells as a function of sodium diet, or diuretics, was assayed by quantitating the frequency of renin immunostaining in segments of the distal nephron using the peroxidase reporter enzyme and AEC chromogen. Two independent blinded investigators scored sagittal kidney for renin using a subjective 0-4 scale: 0 equaled no tubular renin staining; 1 equaled at least one positive cell per tubule segment; 2 equaled between 25-50% of cells per of tubule segment; 3 equaled more than 50% of cells per tubule segment stained for renin; 4 equaled >75%. […] Results were analyzed by comparing the mean±S.E.M. between groups using unpaired t-tests. p<0.05 was considered significant. […]

renin expression in JGA = assay: JGA renin expression by semiquantitative RT-PCR of total kidney RNA; assay type: in vivo, C57BL6 mice; conditions: overnight
Description: as §1, with “Ang.” for “Ang. RNA isolation and RT-PCR were performed following standard protocols (QIAGEN, Valencia, Calif.).”
On the basis of immunostaining and expression studies, we conclude that, in addition to its major site of expression in JGA, renin is also expressed in connecting tubule. […] Renin expression in CNT cells was assessed by quantitative histology (frequency of CNT cells staining for renin). […] Manipulation of dietary sodium was monitored by measuring total sodium excretion. […]

Compound: N=C(N)NC(=O)c1nc(Cl)c(N)nc1N [amiloride]
- renin expression in distal nephron ([1]; blocking the sodium channel of principal cells (summary statement)): up-regulation
- CNT immunoreactive renin ([1]; high sodium diet plus amiloride (one mg/kg, subcutaneous), overnight, vs high sodium alone): increased; also recorded: marked increase
- JGA renin (renin expression in JGA; high sodium diet plus amiloride (one mg/kg, subcutaneous), p<0.05): significantly decreased

Compound: NS(=O)(=O)c1cc(C(=O)O)c(NCc2ccco2)cc1Cl [furosemide]
- renin expression in CNT ([1]; sodium restriction plus furosemide (2 mg/kg, subcutaneous), overnight, vs sodium restriction alone): decreased
- JGA renin (renin expression in JGA; sodium restriction plus furosemide (2 mg/kg, subcutaneous), vs sodium restriction alone): without additional effects

Source: patent US7749725B2, “Drug screening and diagnosis based on paracrine tubular renin-angiotensin system” (University of Utah Research Foundation, priority 1998, dated 2010)
